Data: ChEMBL document CHEMBL1127244, “Alternative strategies towards the identification of chemical lead compounds by rational design” (Bioorg Med Chem Lett, 1994)

Experiments:
[1] = target: T1, Cholecystokinin receptor type A (Rattus norvegicus, UniProt P30551); assay: Binding affinity towards CCK-A receptor in rat pancreas using [125I]Bolton-Hunter CCK-8 as radioligand; Value ranges from 11-16 uM; assay type: tissue-based
T1 sequence (P30551 whole entry): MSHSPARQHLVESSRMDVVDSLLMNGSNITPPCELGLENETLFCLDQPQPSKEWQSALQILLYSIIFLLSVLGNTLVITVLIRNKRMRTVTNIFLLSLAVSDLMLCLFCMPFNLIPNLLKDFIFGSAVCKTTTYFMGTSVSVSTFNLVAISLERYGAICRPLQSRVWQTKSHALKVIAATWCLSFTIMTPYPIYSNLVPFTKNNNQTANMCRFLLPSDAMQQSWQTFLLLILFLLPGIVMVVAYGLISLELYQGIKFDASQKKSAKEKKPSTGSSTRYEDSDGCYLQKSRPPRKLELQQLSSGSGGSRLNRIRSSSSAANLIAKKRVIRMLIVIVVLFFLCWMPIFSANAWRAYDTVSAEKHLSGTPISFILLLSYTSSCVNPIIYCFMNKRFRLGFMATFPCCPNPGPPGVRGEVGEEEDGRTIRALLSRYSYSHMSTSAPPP

Substance-P receptor [2] = target: T2, Substance-P receptor (Cavia porcellus, UniProt P30547); assay: Binding affinity towards NK-1 receptor in guinea pig cerebral cortex using [125I]-Bolton-Hunter substance P as radioligand; Value ranges from 7.3-8.8 uM; assay type: tissue-based
T2 sequence (P30547 whole entry): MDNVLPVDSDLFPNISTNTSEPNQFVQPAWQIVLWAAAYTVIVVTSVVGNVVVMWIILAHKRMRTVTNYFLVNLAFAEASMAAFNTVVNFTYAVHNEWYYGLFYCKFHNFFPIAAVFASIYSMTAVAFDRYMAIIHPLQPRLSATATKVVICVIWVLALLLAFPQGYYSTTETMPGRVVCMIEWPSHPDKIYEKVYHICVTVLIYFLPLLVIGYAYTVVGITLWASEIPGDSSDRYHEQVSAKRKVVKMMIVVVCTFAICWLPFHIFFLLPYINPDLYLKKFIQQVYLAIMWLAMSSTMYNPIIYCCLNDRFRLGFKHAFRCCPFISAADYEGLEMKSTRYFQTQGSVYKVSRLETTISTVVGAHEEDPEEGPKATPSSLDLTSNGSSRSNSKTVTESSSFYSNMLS

Substance-K receptor [3] = target: T3, Substance-K receptor (Mesocricetus auratus, UniProt P51144); assay: Binding affinity towards Tachykinin receptor 2 in hamster urinary bladder using [125I]-Neurokinin A as radioligand; Inactive (>>10 uM); assay type: tissue-based
T3 sequence (P51144 whole entry): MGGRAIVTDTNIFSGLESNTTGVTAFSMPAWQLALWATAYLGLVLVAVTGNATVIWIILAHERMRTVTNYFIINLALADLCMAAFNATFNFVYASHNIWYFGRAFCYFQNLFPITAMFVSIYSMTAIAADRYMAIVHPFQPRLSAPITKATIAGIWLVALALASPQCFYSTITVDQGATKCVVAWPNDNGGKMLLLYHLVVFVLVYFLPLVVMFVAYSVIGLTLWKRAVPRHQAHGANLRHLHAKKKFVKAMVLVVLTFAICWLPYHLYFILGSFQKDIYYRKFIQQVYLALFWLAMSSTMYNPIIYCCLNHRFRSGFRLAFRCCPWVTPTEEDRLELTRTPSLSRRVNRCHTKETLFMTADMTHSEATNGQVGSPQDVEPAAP

Neuromedin-K receptor [4] = target: T4, Neuromedin-K receptor (Cavia porcellus, UniProt P30098); assay: Binding affinity towards Tachykinin receptor 3 in guinea pig cerebral cortex using [3H]senktide as radioligand; Inactive (>>10 uM); assay type: tissue-based
T4 sequence (P30098 whole entry): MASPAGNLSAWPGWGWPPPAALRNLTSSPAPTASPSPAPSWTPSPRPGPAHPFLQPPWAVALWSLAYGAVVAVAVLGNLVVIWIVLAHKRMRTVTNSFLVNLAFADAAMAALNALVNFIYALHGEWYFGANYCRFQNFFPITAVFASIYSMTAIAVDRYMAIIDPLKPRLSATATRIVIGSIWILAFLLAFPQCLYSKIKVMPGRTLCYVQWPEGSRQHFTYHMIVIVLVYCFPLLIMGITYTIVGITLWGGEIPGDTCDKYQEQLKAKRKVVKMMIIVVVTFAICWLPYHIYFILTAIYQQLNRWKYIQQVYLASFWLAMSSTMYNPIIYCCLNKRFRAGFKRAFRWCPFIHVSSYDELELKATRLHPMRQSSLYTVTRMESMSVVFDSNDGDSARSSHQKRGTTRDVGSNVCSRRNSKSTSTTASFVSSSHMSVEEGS

[5] = target: T5, Gastrin/cholecystokinin type B receptor (Mus musculus, UniProt P56481); assay: Binding affinity towards CCK-B receptor in mouse cerebral cortex using [125I]Bolton-Hunter CCK-8 as radioligand; Inactive (>>10 uM); assay type: tissue-based
T5 sequence (P56481 whole entry): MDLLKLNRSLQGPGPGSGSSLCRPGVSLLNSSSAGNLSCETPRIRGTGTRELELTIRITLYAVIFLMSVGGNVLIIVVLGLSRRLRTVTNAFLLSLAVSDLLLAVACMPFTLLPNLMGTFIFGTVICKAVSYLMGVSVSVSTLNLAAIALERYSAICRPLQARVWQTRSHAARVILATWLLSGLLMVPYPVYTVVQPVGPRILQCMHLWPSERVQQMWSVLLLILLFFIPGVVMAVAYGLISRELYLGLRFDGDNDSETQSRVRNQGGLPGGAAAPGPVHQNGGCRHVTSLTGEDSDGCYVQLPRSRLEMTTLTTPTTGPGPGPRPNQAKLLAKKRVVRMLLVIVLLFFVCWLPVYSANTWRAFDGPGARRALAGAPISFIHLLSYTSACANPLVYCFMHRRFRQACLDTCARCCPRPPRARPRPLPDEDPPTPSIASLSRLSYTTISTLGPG

Substance-P receptor [6] = target: T2, Substance-P receptor; assay: Binding affinity towards NK-1 receptor in guinea pig cerebral cortex using [125I]Bolton-Hunter substance P as radioligand; Inactive (>>10 uM); assay type: tissue-based
Substance-K receptor [7] = target: T3, Substance-K receptor; assay: Binding affinity towards Tachykinin receptor 2 in hamster urinary bladder using [125I]neurokinin A as radioligand; Value ranges from 2.6-11 uM
[8] = target: T1, Cholecystokinin receptor type A; assay: Binding affinity towards CCK-A receptor in rat pancreas using [125I]Bolton-Hunter CCK-8 as radioligand; Value ranges from 4.7-7.1 uM; assay type: tissue-based
[9] = target: T5, Gastrin/cholecystokinin type B receptor; assay: Binding affinity towards CCK-B receptor in mouse cerebral cortex using [125I]Bolton-Hunter CCK-8 as radioligand; Value ranges from 7.8-9.3 uM; assay type: tissue-based
Neuromedin-K receptor [10] = target: T4, Neuromedin-K receptor; assay: Binding affinity towards Tachykinin receptor 3 in guinea pig cerebral cortex using [3H]senktide as radioligand; Value ranges from 5.8-14u M; assay type: tissue-based
Substance-K receptor [11] = target: T3, Substance-K receptor; assay: Binding affinity towards Tachykinin receptor 2 in hamster urinary bladder using [125I]neurokinin A as radioligand; Value ranges from 4.6-9.0 uM
[12] = target: T1, Cholecystokinin receptor type A; assay: Binding affinity towards CCK-A receptor in rat pancreas using [125I]Bolton-Hunter CCK-8 as radioligand; Value ranges from 12-20 uM; assay type: tissue-based
[13] = target: T1, Cholecystokinin receptor type A; assay: Binding affinity towards CCK-A receptor in rat pancreas using [125I]Bolton-Hunter CCK-8 as radioligand; Value ranges from 3.3-5.4 uM; assay type: tissue-based
[14] = target: T5, Gastrin/cholecystokinin type B receptor; assay: Binding affinity towards CCK-B receptor in mouse cerebral cortex using [125I]Bolton-Hunter CCK-8 as radioligand; Value ranges from 9.8-25 uM; assay type: tissue-based
[15] = target: T1, Cholecystokinin receptor type A; assay: Binding affinity towards CCK-A receptor in rat pancreas using [125I]Bolton-Hunter CCK-8 as radioligand; Value ranges from 3.5-4.6 uM; assay type: tissue-based
[16] = target: T1, Cholecystokinin receptor type A; assay: Binding affinity towards CCK-A receptor in rat pancreas using [125I]Bolton-Hunter CCK-8 as radioligand; Value ranges from 4.1-6.4 uM; assay type: tissue-based
Neuromedin-K receptor [17] = target: T4, Neuromedin-K receptor; assay: Binding affinity towards Tachykinin receptor 3 in guinea pig cerebral cortex using [3H]senktide as radioligand; Value ranges from 8.2-9.4 uM; assay type: tissue-based

| IC50 (Substance-K receptor [3]) | IC50 (Neuromedin-K receptor [4]) | IC50 [5] | IC50 (Substance-P receptor [6]) | SMILES | further results |
| --- | --- | --- | --- | --- | --- |
| Not Active | Not Active |  | Not Active | O=C1[C@H](Cc2c[nH]c3ccccc23)CN(Cc2ccccc2)C[C@@H]1Cc1c[nH]c2ccccc12 | IC50 [13]: 4.1 µM; IC50 [14]: 15 µM |
| Not Active | Not Active | Not Active | Not Active | O=C1C(Cc2c[nH]c3ccccc23)CN(Cc2ccccc2)C[C@@H]1Cc1c[nH]c2ccccc12 (stereo partly specified) | IC50 [15]: 4 µM |
| Not Active | Not Active | Not Active | Not Active | CC(C)(C)OC(=O)n1cc(CC2CN(Cc3ccccc3)CCC2O)c2ccccc21 (stereo unspecified) | IC50 [16]: 5.2 µM |

Second part, the molecule before the results:

| SMILES | IC50 (Substance-K receptor [3]) | IC50 (Neuromedin-K receptor [4]) | IC50 [5] | IC50 (Substance-P receptor [6]) | further results |
| --- | --- | --- | --- | --- | --- |
| O=C1CCN(C(=O)OCc2ccccc2)CC1Cc1ccccc1 (stereo unspecified) | Not Active | Not Active | Not Active |  | IC50 [1]: 13 µM; IC50 (Substance-P receptor [2]): 8.1 µM |
| O=C1CCN(C(=O)CCc2c[nH]c3ccccc23)CC1Cc1ccccc1 (stereo unspecified) |  | Not Active |  | Not Active | IC50 (Substance-K receptor [7]): 6.9 µM |
| CCOP(=O)(OCC)OC1=CCN(Cc2ccccc2)CC1Cc1cn(C(=O)OC(C)(C)C)c2ccccc12 (stereo unspecified) | Not Active | Not Active |  | Not Active | IC50 [8]: 5.5 µM; IC50 [9]: 8.5 µM |
| O=C1CCN(Cc2ccccc2)CC1Cc1c[nH]c2ccccc12 (stereo unspecified) |  |  | Not Active | Not Active | IC50 (Neuromedin-K receptor [10]): 10 µM; IC50 (Substance-K receptor [11]): 6.8 µM; IC50 [12]: 16 µM |
| OC1CCN(Cc2ccccc2)C[C@@H]1Cc1c[nH]c2ccccc12 (stereo partly specified) | Not Active |  |  | Not Active | IC50 (Neuromedin-K receptor [17]): 8.8 µM |
